Reference: patent US20250230226A1, “PLXDC1/PLXDC2 ACTIVATORS AND THEIR USE IN THE TREATMENT OF BLOOD VESSEL DISORDERS” (THE REGENTS OF THE UNIVERSITY OF CALIFORNIA, priority 2019, published 2025)

What was measured:
[1] = biological target: T1, PLXDC2 (Homo sapiens, UniProt Q6UX71); test: Gfi1b promotor luciferase receptor activation assay, PLXDC2-expressing cells (FIG. 18B); type: cell-based; details: compound treatments 1 day
T1 construct: host or cells: PLXDC2-expressing cells
Source text: (§1) FIG. 18A-B show activation of PLXDC1 and PLXDC2 by small molecules. […] All compound treatments were done for 1 day. Basal promotor activity of the PLXDC1-expressing cells is defined as 1.
(§2) By linking its promotor to a luciferase reporter gene, this example developed a PLXDC1 receptor activation assay.

[2] = biological target: T2, PLXDC1 (Homo sapiens, UniProt Q8IUK5); test: Gfi1b promotor luciferase receptor activation assay, PLXDC1-expressing cells (FIG. 18A, 19); type: cell-based; details: compound treatments 1 day; basal activity defined as 1
T2 construct: expressed in transfected cells
T2 sequence (Q8IUK5 19-500): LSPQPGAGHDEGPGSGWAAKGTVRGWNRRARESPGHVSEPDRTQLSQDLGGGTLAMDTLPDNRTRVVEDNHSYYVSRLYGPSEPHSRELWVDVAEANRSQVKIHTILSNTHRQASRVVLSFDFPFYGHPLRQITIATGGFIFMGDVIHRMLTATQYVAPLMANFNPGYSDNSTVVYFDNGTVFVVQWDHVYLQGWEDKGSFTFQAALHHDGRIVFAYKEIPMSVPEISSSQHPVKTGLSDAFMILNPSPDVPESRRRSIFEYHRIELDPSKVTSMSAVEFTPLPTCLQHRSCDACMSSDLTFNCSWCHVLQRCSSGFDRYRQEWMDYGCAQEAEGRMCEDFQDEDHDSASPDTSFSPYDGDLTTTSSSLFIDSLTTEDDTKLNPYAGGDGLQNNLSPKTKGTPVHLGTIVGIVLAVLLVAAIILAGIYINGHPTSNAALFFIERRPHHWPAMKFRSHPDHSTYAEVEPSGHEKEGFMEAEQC
Source text: as §1
Basal promotor activity of the PLXDC1-expressing cells is defined as 1. The basal activity of PLXDC1-expressing cells (Control) are higher than cells without PLXDC1, consistent promotor activation by the ectopic expression of the receptor without ligands.
as §2

[3] = system: LL/2 lung cancer tumor endothelial cells; test: Lung LL2 ex vivo model of tumor angiogenesis; type: cell-based, mouse; details: 20 μm
Summary of the method: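 Live/dead imaging with FDA and PI, taken e.g. 48 h post-drug under fixed channel settings, measures treatment effects on endothelial cells sprouting from Lewis lung tumor explants. Explants were seeded in Matrigel drops and grown ~4 days in endothelial growth medium, 37 °C, 5% CO2, before dosing.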

T1 sequence (Q6UX71 31-529): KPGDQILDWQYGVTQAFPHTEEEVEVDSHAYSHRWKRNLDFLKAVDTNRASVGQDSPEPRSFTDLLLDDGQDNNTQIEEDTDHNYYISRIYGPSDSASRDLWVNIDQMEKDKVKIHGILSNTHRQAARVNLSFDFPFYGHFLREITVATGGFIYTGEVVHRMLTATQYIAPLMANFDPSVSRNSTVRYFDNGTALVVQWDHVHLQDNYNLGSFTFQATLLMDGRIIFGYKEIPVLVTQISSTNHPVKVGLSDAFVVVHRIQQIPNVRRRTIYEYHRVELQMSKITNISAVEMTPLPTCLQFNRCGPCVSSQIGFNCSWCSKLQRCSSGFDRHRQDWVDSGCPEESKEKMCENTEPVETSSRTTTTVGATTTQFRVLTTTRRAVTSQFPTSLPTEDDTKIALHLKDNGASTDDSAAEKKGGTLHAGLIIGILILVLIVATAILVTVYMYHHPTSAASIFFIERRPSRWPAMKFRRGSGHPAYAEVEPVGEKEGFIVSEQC

CCCCCCCCCCCCCCOc1ccc(S(=O)(=O)c2cnc3ccc([S+](C)[O-])cc3c2N2CCC(N3CCC(N4CCN(C)CC4)CC3)CC2)cc1 (stereo not shown) [Compound 346]
Gfi1b promotor activity in PLXDC2-expressing cells [1]: activated the promotor activity in PLXDC2-expressing cells | Gfi1b promotor activity in PLXDC1-expressing cells [2]: highly activated the promotor activity | 48 hrs (morphology observations) ([3]; 48 hours, LL/2 tumor endothelial cells): * (50% or less of cells vesicularize in cell shape) | Cell death ([3]; drug treatment for two days, ratio of red area to total endothelial cell area): 20%
